Bounds are passed on as bounds.

One experiment relates to various enteroviruses. As to the kind of experiment: broad-spectrum anti-enteroviral activity (CPE), summary over viruses. To be noted: all viruses of Table 1; read-out: EC50 values against various enteroviruses. Format: cell-based. The method, then:
In this experiment, the experiment on protection of EIDD-1931 and EIDD-2801 against CPE caused by EV-A71 virus AH08/06 strain, EV-D68 virus STL-2014-12 strain, CV-A6 TW-2007-00141 strain, and CV-A16 190-D1 strain were all performed by using RD cells. The experiments on protection of EIDD-1931 and EIDD-2801 against CPE caused by CV-B3 Nancy strain were performed by using Vero cells. The specific experimental methods were the same as those in Example 1.

The test system of experiment [1] is CHIKV, VEEV, RSV, HCV, NV, IAV, IBV, EBOV, MERS-CoV, SARS-CoV-2. To be noted: background art; cited from earlier work.

As usually defined, the EC50 is the concentration needed to bring the measured effect to its halfway point. On to `O=c1nc(NO)ccn1[C@@H]1O[C@H](CO)[C@@H](O)[C@H]1O` [EIDD-1931], for which the EC50 in the experiment on various enteroviruses is less than 20 µM. For the same molecule, in experiment [1], the “inhibitory effects against CHIKV, VEEV, RSV, HCV, NV, IAV, IBV, EBOV, MERS-CoV and SARS-CoV-2” value is on record as “good inhibitory effects”.

The record behind these values is patent US20260158050A1, “USE OF EIDD-1931 OR DERIVATIVE THEREOF IN TREATMENT OF ENTEROVIRUS INFECTION” (ACADEMY OF MILITARY MEDICAL SCIENCES, priority 2022, published 2026).
